Data on eight molecules can be found in PubChem BioAssay (NCI).

The term TGI denotes the concentration giving total growth inhibition. A lower TGI goes with more potent growth arrest. What is called GI50 is the concentration giving 50% growth inhibition.

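Compound exposure: 48 hours, 5 concentrations, 96-well plates. GI50: concentration for 50% inhibition of growth. TGI: total growth inhibition.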 Some results are limits rather than exact numbers.

Test systems include RPMI-8226 leukemia; OVCAR-4 ovarian; COLO 205 colon; DMS 114 small cell lung; NCI-H522 lung; NCI-H460 lung; LOX IMVI melanoma; LXFL 529 NSCLC; SNB-19 CNS; MCF7 breast.
Holding throughout (experiment): DTP human tumour cell line panel, 48 h

On to `CC(=O)OC1(C#N)CC2OC1C1N=NN(C(=O)OC(C)(C)C)C21` (configuration not stated), for which the TGI with RPMI-8226 leukemia was more than 100 µM; in the assay on OVCAR-4 ovarian it was more than 31.6 µM; in the assay on COLO 205 colon, more than 100 µM; with DMS 114 small cell lung it was more than 74.9 µM; with NCI-H522 lung it was more than 100 µM; in the assay with NCI-H460 lung, more than 100 µM. Moreover, the concentration for total growth inhibition (TGI) with LOX IMVI melanoma is more than 31.6 µM; in the assay on LXFL 529 NSCLC, more than 100 µM; in the assay on SNB-19 CNS it was more than 100 µM.

In the case of `CC(C)c1cc(C(=O)[O-])c(O)c(C(C)C)c1.CC(C)c1cc(C(=O)[O-])c(O)c(C(C)C)c1.CC(C)c1cc(C(=O)[O-])c(O)c(C(C)C)c1.CC(C)c1cc(C(=O)[O-])c(O)c(C(C)C)c1.CC(C)c1cc(C(=O)[O-])c(O)c(C(C)C)c1.CC(C)c1cc(C(=O)[O-])c(O)c(C(C)C)c1.[Cu+2].[Mn+2].[Mn+2]`, the GI50 was 14.5 µM in the assay with RPMI-8226 leukemia; 16.1 µM in the assay on OVCAR-4 ovarian; 10.9 µM with COLO 205 colon; 17.8 µM with DMS 114 small cell lung; 10.9 µM in the assay with NCI-H522 lung; 15.8 µM with NCI-H460 lung. In addition, the GI50 in the assay with LOX IMVI melanoma is 17 µM; in the assay on LXFL 529 NSCLC, 19.6 µM; in the assay on SNB-19 CNS it was 20.8 µM. Also, the concentration for total growth inhibition (TGI) came out at 50.4 µM in the assay on RPMI-8226 leukemia; 47.8 µM in the assay on OVCAR-4 ovarian; 25.6 µM in the assay on COLO 205 colon; 34.6 µM in the assay with DMS 114 small cell lung; 25.1 µM in the assay with NCI-H522 lung; 32.2 µM in the assay with NCI-H460 lung. In addition, the TGI in the assay with LOX IMVI melanoma was found to be 36.3 µM; with LXFL 529 NSCLC it was 46.3 µM; with SNB-19 CNS it was 47.8 µM.

Turning to `COC(=O)c1ccc(/C=C/S(=O)(=O)c2ccccc2)cc1`, the TGI in the assay on RPMI-8226 leukemia, with OVCAR-4 ovarian, in the assay with COLO 205 colon, in the assay with DMS 114 small cell lung, with NCI-H522 lung and in the assay on NCI-H460 lung was more than 100 µM in each case. In addition, the TGI in the assay on LOX IMVI melanoma, in the assay on LXFL 529 NSCLC and in the assay on SNB-19 CNS was more than 100 µM in each case.

Consider `N/C(=N\N=C\c1ccc(O)c(O)c1)NO`, for which the TGI with RPMI-8226 leukemia, with OVCAR-4 ovarian, in the assay with COLO 205 colon, in the assay with DMS 114 small cell lung, in the assay with NCI-H522 lung and with NCI-H460 lung was more than 100 µM each time. The TGI in the assay on LOX IMVI melanoma, with LXFL 529 NSCLC and in the assay on SNB-19 CNS was more than 100 µM throughout.

Regarding `CC(C)Cc1ccc(C(C)/C=C2\CCC(CN3CCCCC3)C2=O)cc1` (configuration not stated), the TGI was 6.65 µM in the assay on RPMI-8226 leukemia; 14.2 µM in the assay with OVCAR-4 ovarian; 15.6 µM in the assay with COLO 205 colon; 4.78 µM in the assay with DMS 114 small cell lung; 2.9 µM in the assay with NCI-H522 lung; 66.1 µM with NCI-H460 lung. The TGI in the assay with LOX IMVI melanoma was determined as 3.99 µM; in the assay on MCF7 breast it was 4.08 µM; in the assay with LXFL 529 NSCLC, 3.55 µM; with SNB-19 CNS, 19.6 µM.

Regarding `CCN(CC)CCC(=O)N1C/C(=C/c2ccccc2)C(=O)/C(=C\c2ccccc2)C1`, the TGI in the assay on RPMI-8226 leukemia came out at 0.568 µM; with OVCAR-4 ovarian it was 6.04 µM; in the assay on COLO 205 colon it was 6.74 µM; with DMS 114 small cell lung it was 4.54 µM; in the assay on NCI-H522 lung, 2.29 µM; with NCI-H460 lung, 11.4 µM. In addition, the TGI in the assay with LOX IMVI melanoma turned out to be 0.949 µM; with MCF7 breast, 1.69 µM; in the assay on LXFL 529 NSCLC it was 3.27 µM; in the assay on SNB-19 CNS it was 6.63 µM.

For `COc1c(Cl)[c]([Hg][O]C(C)=O)c(NCC(C)=O)c(OC)[c]1[Hg][O]C(C)=O`, the GI50 in the assay with RPMI-8226 leukemia was 15 µM; in the assay with OVCAR-4 ovarian it was 20 µM; with COLO 205 colon, 22 µM; in the assay on DMS 114 small cell lung, 4.12 µM; in the assay on NCI-H522 lung it was 1.37 µM; in the assay with NCI-H460 lung, 33.2 µM. Further, the GI50 with LOX IMVI melanoma was 33.4 µM; in the assay on LXFL 529 NSCLC it was 1.06 µM; in the assay with SNB-19 CNS it was 3.53 µM. For the same molecule, the TGI in the assay with RPMI-8226 leukemia is 38.8 µM; with OVCAR-4 ovarian, 79.7 µM; in the assay on COLO 205 colon, 54.5 µM; in the assay on DMS 114 small cell lung it was 26.9 µM; with NCI-H522 lung it was 4 µM; with NCI-H460 lung it was more than 100 µM. Further, the TGI with LOX IMVI melanoma is more than 100 µM; in the assay on LXFL 529 NSCLC it was 3.68 µM; with SNB-19 CNS, 11.2 µM.

For the molecule `CC(C)C1NC(=O)[C@H](C)OC(=O)[C@@H](C(C)C)NC(=O)[C@@H](C)OC(=O)C(C(C)C)NC(=O)[C@H](C)OC1=O` (some centres not stated), the TGI in the assay with RPMI-8226 leukemia was more than 68.8 µM; in the assay on OVCAR-4 ovarian, more than 100 µM; with COLO 205 colon, more than 94.8 µM; in the assay on DMS 114 small cell lung, more than 100 µM; with NCI-H522 lung, more than 100 µM; in the assay on NCI-H460 lung, more than 100 µM. Besides, the TGI was more than 79 µM with LOX IMVI melanoma, more than 100 µM in the assay on LXFL 529 NSCLC and more than 100 µM in the assay on SNB-19 CNS.
